# Where “and” joins values, the source holds several entries; their conditions need not be identical. Equal values may be shown once. Read-outs that look alike come from different tables or passages of the source.
# Columns and labels:
# [1] = system: adult male Wistar rats; assay: SCORE-2000 sleep-wakefulness, locomotor activity and body temperature monitoring; format: in vivo, rat
# [2] = system: male Wistar rats; format: in vivo
# Description: The Irwin screen can provide useful information on potential side effects of compounds on general physiological and behavioural functions. The screen was conducted by administering the test compounds orally in 0.25% aqueous methylcellulose using male Wistar rats, a frequently used species in such studies and for which background data are readily available.
# The Irwin screen tests for numerous parameters in animals that have been administered the test compound. For example, the screen can include: in-cage effects, e.g., dispersion, respiratory rate, locomotor activity, restlessness, fighting, alertness, apathy, and exophthalmus; in-arena effects, e.g., transfer arousal, spatial locomotion, ptosis, startle, tail elevation, piloerection, touch escape, positional passivity, catalepsy, tighting reflex, visual placing, grip strength, pinna, corneal, pain response, and wire manoeuvre; parameters observed in handling, e.g., cyanosis, cutaneous blood flow, hypothermia, body tone, pupil size, light-pupil response, lacrimation, grooming, red staining, salivation, and provoked biting; general scores e.g., fearfulness, irritability, abnormal gait, abnormal body carriage, tremors, twitches, convulsions, bizarre behaviour, writhing, vocalisation, diarrhoea, number of defaecations, number of urinations, moribund, lethality, and abnormalities detected. Further details can be found in Irwin, S; Comprehensive observational assessment: I a. A systematic, quantitative procedure for assessing the behavioural and physiological state of the mouse.
# Irwin screening of the disclosed sleep-inducing agents was performed by Covance (Princeton, N.J.) according to Irwin, above; Covance Standard Operating Procedure (current revision of SOP PHARM 8.10); relevant regulatory authority guidelines ICH (International Committee for Harmonization) Guideline (Topic S7A; CPMP/ICH/539/00) on Safety Pharmacology Studies for human pharmaceuticals (November 2000); and all procedures carried out on live animals were subject to the provisions of United Kingdom Law, in particular the Animals (Scientific Procedures) Act, 1986. which obliges all UK laboratories to maintain a local ethical review process to ensure that all animal use in the establishment is carefully considered and justified; that proper account is taken of all possibilities for reduction, refinement or replacement and that high standards of accommodation and care are achieved.
# All test compound formulations were prepared on the day of dosing by Covance Harrogate Dispensary. The test compounds were formulated in 0.25% aqueous methylcellulose at the highest concentration required. Lower doses were obtained by serial dilution of the highest concentration using 0.25% aqueous methylcellulose. Dose levels are expressed in terms of the amount of test compound administered without regard to purity or active content. All formulations were stored at room temperature (nominally 10 to 30° C.) in sealed containers and protected from light.
# An adequate number of male Wistar (Crl:WI(Glx/BRL/Han) BR:WH) rats were obtained from Charles River Ltd. (Margate, Kent, United Kingdom). The rats were approximately 5 weeks of age and weighed between 150 and 170 g on arrival. The animals were housed in groups of no more than six in polypropylene cages (33×15×13 cm) or (45×28×20 cm) with solid floors and Grade 10 woodflakes (Datesand Ltd., Cheshire, United Kingdom) as bedding. The cages were cleaned and dried before use. Aspen chew blocks were placed within the cages as a form of environmental enrichment. Routinely, holding rooms were maintained within acceptable limits for temperature and relative humidity (nominally 19 to 25° C. and 40% to 70%, respectively). These rooms were illuminated by fluorescent light for 12 hours out of each 24 hour cycle and designed to receive at least 15 fresh air changes per hour. […]
# [3] = target: T1, H1 histamine receptor (Bos taurus, UniProt P30546); assay: Histamine H1 competitive binding assay ([3H]pyrilamine); parameters: species or system bovine; details: read-out: Ki H1
# T1 construct: the receptors were obtained from bovine cerebellar membrane tissue; from tissue; host or cells: bovine cerebellar membranes
# T1 sequence (P30546 whole entry): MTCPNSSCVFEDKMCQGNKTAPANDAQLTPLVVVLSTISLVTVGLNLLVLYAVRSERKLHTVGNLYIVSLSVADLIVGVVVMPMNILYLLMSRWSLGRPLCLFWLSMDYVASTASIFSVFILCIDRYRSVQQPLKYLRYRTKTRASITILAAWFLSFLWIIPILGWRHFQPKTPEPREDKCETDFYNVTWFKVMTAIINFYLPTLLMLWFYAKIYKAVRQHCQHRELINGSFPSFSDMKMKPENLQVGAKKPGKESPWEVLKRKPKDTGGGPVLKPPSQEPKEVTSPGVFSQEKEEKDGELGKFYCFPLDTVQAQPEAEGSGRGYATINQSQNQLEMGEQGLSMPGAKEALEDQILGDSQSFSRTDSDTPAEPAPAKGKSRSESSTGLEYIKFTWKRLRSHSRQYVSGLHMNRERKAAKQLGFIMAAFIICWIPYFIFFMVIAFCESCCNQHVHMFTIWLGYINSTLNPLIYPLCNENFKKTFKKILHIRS
# [4] = target: hERG (Homo sapiens, UniProt Q12809)
# Chain of hERG (Q12809 whole entry): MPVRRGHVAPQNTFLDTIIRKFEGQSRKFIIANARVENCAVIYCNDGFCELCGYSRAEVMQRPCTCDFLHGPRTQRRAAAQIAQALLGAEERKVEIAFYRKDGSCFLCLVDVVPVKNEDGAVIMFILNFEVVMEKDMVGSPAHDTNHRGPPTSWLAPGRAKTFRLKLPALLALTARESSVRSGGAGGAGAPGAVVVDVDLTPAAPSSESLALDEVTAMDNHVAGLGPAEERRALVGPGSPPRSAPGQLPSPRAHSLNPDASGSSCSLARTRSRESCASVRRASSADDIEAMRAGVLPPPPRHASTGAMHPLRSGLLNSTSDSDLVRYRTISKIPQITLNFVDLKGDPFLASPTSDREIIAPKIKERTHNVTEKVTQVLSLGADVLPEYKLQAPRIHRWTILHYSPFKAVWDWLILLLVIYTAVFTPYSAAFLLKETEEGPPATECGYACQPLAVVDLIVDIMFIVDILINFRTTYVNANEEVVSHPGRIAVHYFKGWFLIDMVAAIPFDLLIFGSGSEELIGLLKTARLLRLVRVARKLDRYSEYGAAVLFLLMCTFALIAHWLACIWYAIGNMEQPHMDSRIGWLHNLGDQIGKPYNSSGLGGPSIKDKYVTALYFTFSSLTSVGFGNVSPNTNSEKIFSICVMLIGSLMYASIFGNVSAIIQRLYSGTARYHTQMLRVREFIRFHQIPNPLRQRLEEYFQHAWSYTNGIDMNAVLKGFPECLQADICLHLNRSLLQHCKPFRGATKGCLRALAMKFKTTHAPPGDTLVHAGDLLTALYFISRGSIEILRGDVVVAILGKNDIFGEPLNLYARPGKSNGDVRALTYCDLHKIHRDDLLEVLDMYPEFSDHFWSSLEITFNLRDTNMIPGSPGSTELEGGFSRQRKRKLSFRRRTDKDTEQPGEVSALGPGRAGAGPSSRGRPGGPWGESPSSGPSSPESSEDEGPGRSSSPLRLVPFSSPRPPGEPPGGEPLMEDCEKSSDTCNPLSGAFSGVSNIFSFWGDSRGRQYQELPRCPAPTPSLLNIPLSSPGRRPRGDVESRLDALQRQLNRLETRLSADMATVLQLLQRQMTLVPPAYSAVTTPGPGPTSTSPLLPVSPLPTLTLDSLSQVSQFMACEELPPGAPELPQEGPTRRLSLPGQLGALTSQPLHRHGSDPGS
# [5] = target: T2, M1 muscarinic receptor (Homo sapiens, UniProt P11229); assay: Muscarinic M1 binding assay ([3H]-scopolamine, N-methyl chloride); parameters: purchased PerkinElmer, Inc., Wellesley, Mass; host or cells: CHO cells; details: read-out: Ki M1
# T2 sequence (P11229 1-460): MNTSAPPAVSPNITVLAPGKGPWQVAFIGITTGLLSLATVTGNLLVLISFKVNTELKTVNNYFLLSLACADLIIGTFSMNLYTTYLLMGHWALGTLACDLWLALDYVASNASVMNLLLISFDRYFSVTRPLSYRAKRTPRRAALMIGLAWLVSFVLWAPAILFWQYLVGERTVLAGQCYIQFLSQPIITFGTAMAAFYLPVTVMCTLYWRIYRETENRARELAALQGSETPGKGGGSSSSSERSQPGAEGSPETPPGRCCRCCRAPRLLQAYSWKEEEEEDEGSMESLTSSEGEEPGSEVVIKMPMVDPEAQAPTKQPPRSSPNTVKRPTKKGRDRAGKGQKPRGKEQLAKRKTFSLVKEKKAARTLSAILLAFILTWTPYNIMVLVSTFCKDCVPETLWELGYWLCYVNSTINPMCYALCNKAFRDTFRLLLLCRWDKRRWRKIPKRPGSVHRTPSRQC
# [6] = target: T3, M2 muscarinic receptor (Homo sapiens, UniProt P08172); assay: Muscarinic M2 binding assay; parameters: purchased PerkinElmer, Inc., Wellesley, Mass; host or cells: CHO cells; details: read-out: Ki M2
# T3 sequence (P08172 1-466): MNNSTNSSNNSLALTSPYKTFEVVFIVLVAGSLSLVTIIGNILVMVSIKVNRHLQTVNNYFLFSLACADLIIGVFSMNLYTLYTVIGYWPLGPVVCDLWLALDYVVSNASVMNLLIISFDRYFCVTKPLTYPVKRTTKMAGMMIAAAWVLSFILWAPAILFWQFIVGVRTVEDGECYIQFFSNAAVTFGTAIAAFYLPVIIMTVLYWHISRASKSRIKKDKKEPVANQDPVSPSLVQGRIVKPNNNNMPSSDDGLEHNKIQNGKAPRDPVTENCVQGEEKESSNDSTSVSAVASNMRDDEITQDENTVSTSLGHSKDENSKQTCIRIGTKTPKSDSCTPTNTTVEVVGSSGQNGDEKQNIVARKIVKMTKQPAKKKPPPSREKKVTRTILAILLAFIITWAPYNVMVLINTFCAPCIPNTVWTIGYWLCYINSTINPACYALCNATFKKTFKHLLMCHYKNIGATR
# [7] = target: M3 muscarinic receptor (Homo sapiens, UniProt P20309); assay: Muscarinic M3 binding assay; parameters: purchased PerkinElmer, Inc., Wellesley, Mass; host or cells: CHO cells; details: read-out: Ki M3
# Chain of M3 muscarinic receptor (P20309 whole entry): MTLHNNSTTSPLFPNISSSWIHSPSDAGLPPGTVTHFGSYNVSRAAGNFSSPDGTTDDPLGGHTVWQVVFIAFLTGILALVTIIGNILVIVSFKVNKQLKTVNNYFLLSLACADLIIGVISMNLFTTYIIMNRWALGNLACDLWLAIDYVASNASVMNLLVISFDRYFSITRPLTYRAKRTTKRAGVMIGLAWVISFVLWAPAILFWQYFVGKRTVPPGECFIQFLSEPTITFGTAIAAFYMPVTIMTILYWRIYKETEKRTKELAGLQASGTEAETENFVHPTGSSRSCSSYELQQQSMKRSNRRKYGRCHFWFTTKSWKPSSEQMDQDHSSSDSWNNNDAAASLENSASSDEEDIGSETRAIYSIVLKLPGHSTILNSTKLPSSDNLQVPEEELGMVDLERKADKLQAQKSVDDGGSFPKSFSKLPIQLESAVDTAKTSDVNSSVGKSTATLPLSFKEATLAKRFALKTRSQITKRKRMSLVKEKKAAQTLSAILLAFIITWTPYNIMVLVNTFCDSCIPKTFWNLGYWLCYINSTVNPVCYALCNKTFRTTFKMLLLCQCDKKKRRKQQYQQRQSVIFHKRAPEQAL
Compound,LUSB ([1]; dose 3 mg/kg oral at CT-18) [min],NREM ([1]; dose 3 mg/kg oral at CT-18) [min],LUSB ([1]; dose 10 mg/kg oral at CT-18) [min],NREM ([1]; dose 10 mg/kg oral at CT-18) [min],LUSB ([1]; dose 30 mg/kg oral at CT-18) [min],NREM ([1]; dose 30 mg/kg oral at CT-18) [min],"Irwin at mg/kg dose ([2]; rat, in vivo)",Ki [3] [µM],Ki [5] [µM],Ki [6],Ki [7] [µM],"hERG at micromolar (% blocking of the hERG channel) ([4]; human, 10 µM, pH 7.4) [% @ 10]",also measured
O=C(O)CCCN1CCC(=C2c3ccccc3COc3ccccc32)CC1 [Compound 70e],6.6,25.7,6.6,27.4,15,43.3,"10, 30 clean; 100 some side effects",0.136,> 10,> 10 µM,> 10,,Irwin at mg/kg dose ([2]; 30 mg/kg oral): clean; Irwin at mg/kg dose ([2]; 100 mg/kg oral): some side effects; hERG at micromolar (% blocking of the hERG channel) [4]: 2.7% @ 1
O=C(O)C1(CCN2CCC(=C3c4ccccc4COc4ccccc43)CC2)CC1 [Compound 70b],,,8.3,,,,,,,,,,Irwin at mg/kg dose ([2]; 10 mg/kg oral): clean; Irwin at mg/kg dose ([2]; 30 mg/kg oral): clean; Irwin at mg/kg dose ([2]; 100 mg/kg oral): some side effects; hERG at micromolar (% blocking of the hERG channel) ([4]; concentration not given): 50.2%
O=C(O)C1(CN2CCC(=C3c4ccccc4COc4ccccc43)CC2)CC1 [Compound 69b],5.9,14.9,6.2,44.3,14,41.6,clean,0.0549,> 10,> 10 µM,> 10,12.6,LUSB ([1]; dose 15 mg/kg oral at CT-18): 14.4 min; NREM ([1]; dose 15 mg/kg oral at CT-18): 43.4 min; LUSB ([1]; dose 20 mg/kg oral at CT-18): 11.6 min; NREM ([1]; dose 20 mg/kg oral at CT-18): 39.4 min
CC(C)(CCN1CCC(=C2c3ccccc3COc3ccccc32)CC1)C(=O)O [Compound 70a],,,3.7,13.2,6,33.6,clean,0.0368,0.811,3.31 µM and 1.36 µM,,,"LUSB ([1]; dose 45 mg/kg oral at CT-18): 12.1 min; NREM ([1]; dose 45 mg/kg oral at CT-18): 29.3 min; hERG at micromolar (% blocking of the hERG channel) ([4]; human, 1 µM, pH 7.4): 5.1% @ 1"
O=C(O)CN1CCC(=C2c3ccccc3COc3ccccc32)CC1 [Compound 71e],,,,,4.1,34.5,"10, 30 clean; 100 many side effects",0.0607,12.1,5.13 µM,> 10,,Irwin at mg/kg dose ([2]; 30 mg/kg oral): clean; Irwin at mg/kg dose ([2]; 100 mg/kg oral): many side effects; hERG at micromolar (% blocking of the hERG channel) [4]: 3.6% @ 1
COc1ccc2c(c1)COc1ccccc1C2=C1CCN(CC(C)(C)C(=O)O)CC1 [Compound 50a],4.8,12.7,9.3,32.6,11.2,41.9,clean,0.0272,> 10,> 10 µM,> 10,9.7,
O=C(O)C1(CCN2CCC(=C3c4ccc(F)cc4COc4ccccc43)CC2)CC1 [Compound 61b],3.6,11.3,14.6,34.8,9.7,57.4,,0.0122,0.569,3.09 µM,> 10,85.9,
O=C(O)C1(CN2CCC(=C3c4ccc(F)cc4COc4ccccc43)CC2)CC1 [Compound 49b],10.4,22.5,13.1,47.3,15.9,43.2,,0.0614,> 10,> 10 µM,> 10,3.1,
COc1ccc2c(c1)COc1ccc(F)cc1C2=C1CCN(CC(C)(C)C(=O)O)CC1 [Compound 47a],5.5,32.3,16.7,41.1,10,56.9,,0.111,> 10,> 10 µM,> 10,1,LUSB ([1]; dose 1 mg/kg oral at CT-18): 2.9 min; NREM ([1]; dose 1 mg/kg oral at CT-18): 5.5 min
CC(C)(CCN1CCC(=C2c3ccc(F)cc3COc3ccccc32)CC1)C(=O)O [Compound 61a],3.1,13.9,9.7,24,10.1,45.8,,0.182,> 10,> 10 µM,> 10,12.6,
O=C(O)C1(CN2CCC(=C3c4ccc(Cl)cc4COc4ccccc43)CC2)CC1 [Compound 51b],8.4,34.7,8.3,45,128,60.4,,0.072,> 10,> 10 µM,> 10,23,

# Reference: patent US7326721B2 (Hypnion, Inc., priority 2003, dated 2008)
